Results from paper PMC10072326, “Promising anticancer agents based on 8-hydroxyquinoline hydrazone copper(II) complexes” (Frontiers in Chemistry, 2023).

How the values were obtained:
plasmid DNA (H2B-GFP) = assay: Agarose gel electrophoresis of plasmid DNA (DNA migration assay); format: biochemical; details: 200 and 400 μM; overnight; room temperature
Description: The nature of the interaction between the complexes and pure plasmid DNA was evaluated by agarose gel electrophoresis as described previously with minor modifications (21). Briefly, free ligands, copper complexes, and cisplatin (200 and 400 μM; in 20 μL total volume) were incubated overnight at room temperature with plasmid DNA (200 ng, H2B-GFP, Addgene #11680). NaN3 (final: 37.5 mM in ddH2O) was used as a ROS scavenger. Samples were run on a 1% agarose gel (100 V, 60 min). The experiments were carried out with two biological replicates, and ImageJ software was used to quantify and analyse the intensity of the bands.
In addition to thermal denaturation, we performed a cell-free DNA binding assays followed by gel electrophoresis to further investigate the nature of the interaction between the complexes and DNA. The assay relies on the fact that the relative amount of the supercoiled form of plasmid DNA will change upon the occurrence of nicks since the relaxed form migrates slower and can be easily detected on the gel. […] The ligands had little to no effect on DNA migration except L^7 (Fig. S24A). However, incubation of plasmid DNA with complexes 1 - 8 confirmed binding to DNA and changed the supercoiling status by increasing the nicked circular form (Fig. S24). […] To understand whether the induction of DNA nicks requires ROS, the samples were pre-incubated with a ROS scavenger, NaN3. […]

A-549 cells [1] = assay: Cytotoxicity with ROS scavenger NAC (SRB); format: cell-based; details: 10 mM NAC pre-treatment 2 h, co-treatment 72 h
Description: (§1) Additionally, to assess whether the ROS induction contributed to the cytotoxicity triggered by these complexes, we used a ROS scavenger, N-acetyl-cysteine (NAC), in combination with 1, 3, 5 or 8. […] Indeed, it is also possible that the cytotoxicity induced by 5 is not by ROS, despite the induction observed in Figure 7A.
(§2) Figure S27- Protective mechanism of NAC against Cu(II) complexes. Addition of NAC can protect cells from the cytotoxic effects of the Cu(II) complexes A-375 (A) and A-549 (B) cells were pre-treated with 10 mM of ROS scavenger N-acetylcysteine (NAC) for 2 h, then co-treated with freshly prepared Cu(II) complexes (1, 3, 5 and 8) for 72 h. Cell viability was measured via SRB assay (2 biological replicates, each done in duplicate). The error bars represent standard error of the mean. Student t-test was used for statistical analysis, *p<0.05, **p<0.01

A-375 cells [2] = assay: Cytotoxicity with ROS scavenger NAC (SRB); format: cell-based; details: 10 mM NAC pre-treatment 2 h, co-treatment 72 h
Description: as §1, §2

A-375 cells [3] = assay: γH2AX staining for DNA double-strand breaks; format: cell-based
Description: Indeed, we examined whether DNA nicks induced by the complexes on pure plasmid DNA would reflect in cell culture as increased DNA break formation. To test this, A-375 cells were stained using γH2AX, which is a common marker for DSBs (Figure 7B). […] For complex 1 the opposite effect was observed and despite its lower ability to induce ROS formation, the DSB were the highest among the group.
(§3) 5 × 10^4 number of A-375 and A-549 cells were seeded on 12-well plates, and the next day cells were treated with either copper complexes (calculated IC70 values) or cisplatin (15 μM). Following 48 h of treatment, cells were trypsinized, centrifuged and resuspended in PBS solution supplemented with 1% fetal bovine serum (FBS) (10^6 cells/mL).
The Muse ɣH2A.X Activation Dual Detection Kit (Luminex, MCH200101) protocols were followed with minor changes. 1 × 10^5 cells were mixed with ice-cold 1X Fixation Buffer at the same volume for 5 min. Cells were centrifuged (600 g, 5 min), and the pellet was suspended with 100 μL of ice-cold 1X Permeabilization Buffer (10 min, on ice), and centrifuged again. The cell pellet was resuspended with 50 μL of antibody mixture of (20X) Anti-phospho-Histone H2A.X (Ser139), Alexa Fluor 555 and (20X) Anti-H2A.X, PECy5 antibodies. Following 30 min of antibody staining, cells were centrifuged and resuspended with 1X Assay Buffer. DNA breaks were analysed with Muse Cell Analyzer (Merck Millipore).

[4] = Thermodynamic solubility at pH 7.4; format: physicochemical; details: Cu(II) complexes; pH 7.40; 20 mM HEPES; 25.0°C
Description: Thermodynamic solubility (S) was measured for the new ligands, L^7 and L^8, since data for the rest of the series was previously reported (9), and for selected Cu(II) complexes: 1, 5 and 6. Solubility was measured for the saturated solutions in water at pH 7.40 in 20 mM HEPES at 25.0 ± 0.1 °C. The concentration was determined by UV-Vis spectrophotometry using the stock solutions of the compounds with known concentrations dissolved in 100% DMSO, 50% and 25% (v/v) DMSO/buffered aqueous solutions for the calibration.

A-375 cells [5] = assay: ROS activation via dihydroethidium staining, flow cytometry; format: cell-based; details: 48 h
Description: (§4) Since reactive oxygen species appeared to be involved in the nicking activity of the complexes (Supplementary Figure S24), we investigated whether there was an increase in ROS formation in cells upon drug treatment. Dihydroethidium (DHE) is a reduced form of ethidium, after oxidation with superoxide (ROS), it is converted into 2-hydroxy ethidium, which is a chemical that emits red fluorescence and intercalates DNA. […] Similar results were obtained using A-549 cells, but with much milder induction of ROS except for 8, which remained high (Supplementary Figure S26).
as §3
(§5) Oxidative stress levels were assessed by Muse Oxidative Stress Kit (Luminex, MCH100111) using the same protocol as previously described (21).

A-375 cells [6] = assay: Apoptosis by Annexin V/7-AAD and Caspase 3/7 flow cytometry; format: cell-based; details: 48 h, Annexin-V and caspase 3/7
Description: To determine the mode of cell death, A-375 cells were incubated with the Cu complexes and cisplatin for 48 h and, induction of apoptosis was evaluated using both Annexin-V staining and activation of caspase 3/7 in response to drug treatment. While Annexin-V staining relies on the loss of plasma membrane asymmetry, caspases 3 and 7 are critical proteases, which are responsible for the cleavage of many cellular proteins. […] Similar results were obtained in A-549 cells (Supplementary Figure S28).
as §3
Annexin V & Dead Cell Kit (Luminex, MCH100105) protocols were followed for Annexin V activation. Briefly, 1 × 10^5 cells were stained with Annexin V and 7-AAD solution in a 1:1 ratio and incubated at room temperature for 20 min. The apoptotic cell population was evaluated with Muse Cell Analyzer (Merck Millipore).
Caspase-3/7 Kit (Luminex, MCH100108) protocols were followed for Caspase 3/7 staining. 2 × 10^5 cells were stained with 5 μL of Caspase 3/7 antibody (1:8 dilution in PBS) and incubated at room temperature for 30 min. Then, the cells were stained with 100 μL of 7-AAD antibody mixture (1:75 dilution with 1 × Assay Buffer) for 5 min. Caspase 3/7 and 7-AAD positivity were assessed with Muse Cell Analyzer (Merck Millipore).

A-549 cells [7] = assay: ROS activation via dihydroethidium staining, flow cytometry; format: cell-based
Description: as §4, §3, §5

Compound | effect on plasmid DNA migration / nicking (plasmid DNA (H2B-GFP)) | effect of NAC on cytotoxicity (A-549 cells [1]) | effect of NAC on cytotoxicity (A-375 cells [2]) | DSB induction (γH2AX), in words (A-375 cells [3]) | thermodynamic solubility S 7.4 [4] [µM] | ROS positivity (A-375 cells [5]) [%] | induction of apoptosis, in words (A-375 cells [6]) | ROS induction, in words (A-549 cells [7]) | DNA breaks (γH2AX) (A-375 cells [3]; 48 h) [%]
CC(=O)[O-].O=C(NN=Cc1ccc2cccc([O-])c2n1)c1ccccc1.[Cu+2] [Complex 1, [Cu(HL^1)(AcO)]] | highest nicking efficiency | significantly reduced | significantly reduced | highest levels of DSB induction | – | – | – | – | –
[Cu+2].[O-]C(=NN=Cc1ccc2cccc([O-])c2n1)c1ccc(F)cc1 [Complex 3, [Cu(L^3)]3] | – | significantly reduced | significantly reduced | – | < 1 | 60 | performed well | – | –
COc1ccc(C([O-])=NN=Cc2ccc3cccc([O-])c3n2)cc1.[Cu+2] [Complex 5, [Cu(L^5)]3] | – | – | – | highest levels of DSB induction | – | ~80 | triggered apoptosis only mildly | milder ROS induction | ~80
